Activity calls are given as the source filed them. The rule behind the calls is not given here.
How the values were obtained:
Rattus norvegicus [1] = experiment: Antihypertensive activity was determined by percent reduction in blood pressure after 1 hr upon peroral administration of 5 mg/kg dose in spontaneously hypertensive rats(SHR); not significant because of blood pressure falls below 10%; format: functional; settings: route oral
Rattus norvegicus [2] = experiment: Antihypertensive activity was determined by percent reduction in blood pressure after 6 hr upon peroral administration of 5 mg/kg dose in spontaneously hypertensive rats(SHR); not significant because of blood pressure falls below 10%; format: functional; settings: route oral
[3] = molecular target: T1, Adrenergic receptor alpha-1 (Rattus norvegicus, UniProt P15823+P23944+P43140); experiment: Binding affinity against alpha-1-adrenoceptor in rat brain homogenates [3H]-prazosin displacement.; format: tissue-based
T1 sequence (P15823 whole entry): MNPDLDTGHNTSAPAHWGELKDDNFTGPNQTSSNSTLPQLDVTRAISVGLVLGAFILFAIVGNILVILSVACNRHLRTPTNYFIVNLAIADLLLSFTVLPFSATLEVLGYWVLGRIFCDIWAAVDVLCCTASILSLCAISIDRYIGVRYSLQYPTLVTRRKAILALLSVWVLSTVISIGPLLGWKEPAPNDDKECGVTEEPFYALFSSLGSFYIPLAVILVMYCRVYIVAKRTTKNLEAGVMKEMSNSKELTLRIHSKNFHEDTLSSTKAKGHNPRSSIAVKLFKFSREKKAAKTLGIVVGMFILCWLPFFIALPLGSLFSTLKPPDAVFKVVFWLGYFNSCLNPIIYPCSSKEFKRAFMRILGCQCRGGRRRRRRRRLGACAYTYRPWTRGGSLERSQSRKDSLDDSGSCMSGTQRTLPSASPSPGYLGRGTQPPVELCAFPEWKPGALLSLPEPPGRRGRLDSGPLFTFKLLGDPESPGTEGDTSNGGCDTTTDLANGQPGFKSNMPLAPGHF
T1 sequence (P23944 whole entry): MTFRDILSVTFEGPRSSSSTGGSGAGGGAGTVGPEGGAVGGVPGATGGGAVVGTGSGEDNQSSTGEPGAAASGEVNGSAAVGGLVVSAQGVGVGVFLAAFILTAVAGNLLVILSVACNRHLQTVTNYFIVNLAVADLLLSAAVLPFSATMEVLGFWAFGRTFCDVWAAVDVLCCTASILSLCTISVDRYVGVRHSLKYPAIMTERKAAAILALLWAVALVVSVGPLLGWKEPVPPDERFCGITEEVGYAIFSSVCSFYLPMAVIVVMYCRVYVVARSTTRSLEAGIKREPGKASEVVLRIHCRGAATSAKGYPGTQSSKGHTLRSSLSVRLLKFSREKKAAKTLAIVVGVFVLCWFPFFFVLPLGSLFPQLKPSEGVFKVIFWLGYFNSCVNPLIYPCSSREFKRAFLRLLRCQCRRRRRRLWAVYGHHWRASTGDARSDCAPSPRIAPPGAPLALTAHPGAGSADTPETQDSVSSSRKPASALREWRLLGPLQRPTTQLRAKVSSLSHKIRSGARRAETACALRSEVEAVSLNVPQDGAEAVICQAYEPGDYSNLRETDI
T1 sequence (P43140 whole entry): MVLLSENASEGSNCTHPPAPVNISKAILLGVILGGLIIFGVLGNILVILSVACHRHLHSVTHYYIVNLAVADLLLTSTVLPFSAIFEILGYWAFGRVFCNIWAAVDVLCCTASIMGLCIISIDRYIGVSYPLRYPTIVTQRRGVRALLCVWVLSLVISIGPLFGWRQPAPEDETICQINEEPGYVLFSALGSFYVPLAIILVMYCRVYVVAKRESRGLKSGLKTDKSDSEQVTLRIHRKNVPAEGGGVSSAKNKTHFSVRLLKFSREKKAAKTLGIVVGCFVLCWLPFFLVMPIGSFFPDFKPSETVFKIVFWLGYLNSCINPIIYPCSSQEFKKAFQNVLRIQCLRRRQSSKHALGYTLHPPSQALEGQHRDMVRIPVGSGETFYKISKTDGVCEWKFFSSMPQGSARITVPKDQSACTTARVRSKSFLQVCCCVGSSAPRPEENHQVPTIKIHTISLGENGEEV

[4] = molecular target: T2, Adrenergic receptor alpha-2 (Rattus norvegicus) (UniProt P22086+P19328+P22909); experiment: Percent displacement of [3H]clonidine from alpha-2-adrenoceptor in rat brain homogenates at 10E-6 M; Activity of less than 50%.; format: tissue-based
Rattus norvegicus [5] = experiment: Antihypertensive activity was determined by percent reduction in blood pressure after 1 hr upon peroral administration of 5 mg/kg dose in spontaneously hypertensive rats(SHR).; format: functional; settings: route oral
Rattus norvegicus [6] = experiment: Antihypertensive activity was determined by percent reduction in blood pressure after 6 hr upon peroral administration of 5 mg/kg dose in spontaneously hypertensive rats(SHR).; format: functional; settings: route oral
Rattus norvegicus [7] = experiment: Antihypertensive activity was determined by percent reduction in blood pressure after 4 hr upon peroral administration of 3 mg/kg dose in spontaneously hypertensive rats(SHR).; format: functional; settings: route oral
[8] = molecular target: T2, Adrenergic receptor alpha-2 (Rattus norvegicus); experiment: Percent displacement of [3H]clonidine to alpha-2-adrenoceptor was determined in rat brain homogenates at 10E-6 M; format: tissue-based

| SMILES | Reduction (Rattus norvegicus [1]) [%] | Reduction (Rattus norvegicus [2]) [%] | Ki [3] [nM] | Displacement [4] | Reduction (Rattus norvegicus [5]) [%] | Reduction (Rattus norvegicus [6]) [%] | Reduction (Rattus norvegicus [7]) [%] | Displacement [8] [%] |
| --- | --- | --- | --- | --- | --- | --- | --- | --- |
| COc1cc2nc(N3CCN(c4nc(Oc5ccccc5)nc(Oc5ccccc5)n4)CC3)nc(N)c2cc1OC | 9 | 8 | 0.87 | inactive |  |  |  |  |
| COc1cc2nc(N3CCN(c4cc(OC(C)C)ncn4)CC3)nc(N)c2cc1OC |  |  | 0.18 | inactive | 55 | 49 |  |  |
| COc1cc2nc(N3CCN(c4cccnn4)CC3)nc(N)c2cc1OC |  |  | 0.4 | inactive | 22 |  | 20 |  |
| COc1cc2nc(N3CCN(c4ccnc(N5CCOCC5)n4)CC3)nc(N)c2cc1OC |  |  | 0.31 | inactive | 16 |  | 43 |  |
| COc1cc2nc(N3CCN(c4ncccn4)CC3)nc(N)c2cc1OC |  |  | 0.26 | inactive | 40 | 28 |  |  |
| COc1cc2nc(N3CCN(c4cnccn4)CC3)nc(N)c2cc1OC | 7 | 8 | 0.18 | inactive |  |  |  |  |
| COc1cc2nc(N3CCN(c4ccnc(Oc5ccccc5)n4)CC3)nc(N)c2cc1OC |  |  | 0.24 | inactive | 19 | 24 |  |  |
| COc1cc2nc(N3CCN(c4ccncn4)CC3)nc(N)c2cc1OC |  |  | 0.27 | inactive | 21 |  | 12 |  |
| COc1cc2nc(N3CCN(C(=O)c4ccco4)CC3)nc(N)c2cc1OC [PRAZOSIN] |  |  |  |  | 33 | 29 |  |  |
| COc1cc2nc(N3CCN(c4ccc(OC(C)C)nn4)CC3)nc(N)c2cc1OC |  |  | 0.29 | inactive | 39 |  | 33 |  |
| COc1cc2nc(N3CCN(c4nccc(-c5ccccc5)n4)CC3)nc(N)c2cc1OC |  |  | 1.66 | inactive | 17 | 17 |  |  |
| COc1cc2nc(N3CCN(c4nccc(N(C)C)n4)CC3)nc(N)c2cc1OC | 7 |  | 0.27 | inactive |  | 13 |  |  |
| COc1cc2nc(N3CCN(c4nccc(C)n4)CC3)nc(N)c2cc1OC |  |  | 0.92 | inactive | 28 | 15 |  |  |
| CCCOc1cc(N2CCN(c3nc(N)c4cc(OC)c(OC)cc4n3)CC2)ncn1 |  |  | 0.36 | inactive | 39 | 22 |  |  |
| COc1ccnc(N2CCN(c3nc(N)c4cc(OC)c(OC)cc4n3)CC2)n1 |  |  | 0.19 | inactive | 15 | 14 |  |  |
| COc1cc(N2CCN(c3nc(N)c4cc(OC)c(OC)cc4n3)CC2)nc(OC)n1 |  |  | 0.16 |  | 22 | 20 |  | 54.2 |
| CCCOc1ccnc(N2CCN(c3nc(N)c4cc(OC)c(OC)cc4n3)CC2)n1 |  |  | 0.32 | inactive | 34 | 22 |  |  |
| COc1cc2nc(N3CCN(c4nc(N)nc(N)n4)CC3)nc(N)c2cc1OC | 2 |  | 0.47 | inactive |  | 12 |  |  |
| COc1cc2nc(N3CCN(c4cc(N(C)C)ncn4)CC3)nc(N)c2cc1OC | 8 |  |  |  |  | 18 |  |  |
| COc1nc(OC)nc(N2CCN(c3nc(N)c4cc(OC)c(OC)cc4n3)CC2)n1 |  |  | 0.08 | inactive | 15 | 22 |  |  |
